Laboratory results from ChEMBL document CHEMBL1134720, “Antitumour benzothiazoles. Part 15: The synthesis and physico-chemical properties of 2-(4-aminophenyl)benzothiazole sulfamate salt derivatives” (Bioorg Med Chem Lett, 2001).

Legend:
[1] = Log P (Cyclohexane:buffer pH 7.4); type: physicochemical
[2] = Log P (Octanol:buffer pH 7.4); type: physicochemical
[3] = test system: MCF7; test: Antitumor activity expressed as inhibitory concentration against human breast cell line MCF-7(ER+ve); type: functional, cell-based
[4] = Antitumor activity expressed as inhibitory concentration against human breast cell line MDA 468(ER-ve); type: functional, cell-based; details: MDA-MB-468
[5] = Solubility of compound at pH 7.1; type: physicochemical; details: buffer
[6] = Solubility of compound at pH 5.4; type: physicochemical; details: buffer
[7] = Solubility of compound at pH 9; type: physicochemical; details: buffer
[8] = Solubility of compound at pH 7.5; type: physicochemical; details: buffer
[9] = Solubility of compound at pH 6; type: physicochemical; details: buffer
[10] = Delta Log P was determined; type: physicochemical; details: octanol/water
[11] = Solubility of compound at pH 4.2; type: physicochemical; details: buffer

SMILES | logD [1] | logD [2] | IC50 [3] | IC50 [4] | solubility [5] | solubility [6] | solubility [7] | solubility [8] | solubility [9] | delta Log P [10] | solubility [11]
Cc1cc(-c2nc3ccccc3s2)ccc1N | 2.51 | 3.96 |  |  |  |  |  |  |  |  | 
Nc1ccc(-c2nc3ccccc3s2)cc1Br | > 2.8 | > 3.3 |  |  |  |  |  |  |  |  | 
Nc1ccc(-c2nc3ccccc3s2)cc1I | > 2.7 | > 3.3 |  |  |  |  |  |  |  |  | 
O=S(=O)(O)Nc1ccc(-c2nc3ccccc3s2)cc1 |  | 3.4 | 3400 nM | 7500 nM |  |  |  |  |  |  | 

Other lines, results leading:

logD [1] | logD [2] | IC50 [3] | IC50 [4] | solubility [5] | solubility [6] | solubility [7] | solubility [8] | solubility [9] | delta Log P [10] | solubility [11] | SMILES
> 3.2 | > 3.3 |  |  |  |  |  |  |  |  |  | Nc1ccc(-c2nc3ccccc3s2)cc1Cl
1.9 | 1.8 | 1800 nM | 1900 nM |  |  |  |  |  |  |  | O=S(=O)([O-])Nc1ccc(-c2nc3ccccc3s2)cc1I.[Na+]
< 2.19 | 0.02 | 420 nM | 9000 nM | 300 µg/mL | 300 µg/mL | 700 µg/mL | 300 µg/mL | 400 µg/mL | > 2.17 | 500 µg/mL | O=S(=O)([O-])Nc1ccc(-c2nc3ccccc3s2)cc1Cl.[Na+]
< 3 | 0.6 | 490 nM | 720 nM |  |  |  |  |  | > 2.4 |  | Cc1cc(-c2nc3ccccc3s2)ccc1NS(=O)(=O)[O-].[Na+]
